What was measured:
[1] = test system: tobacco mosaic virus (TMV); conditions: cited from earlier work
[2] = test system: Pseudomonas syringae pv tabaci; conditions: cited from earlier work
[3] = test system: SA-inducible pathogenesis-related (PR)-1 proteins; conditions: infiltrated leaves; cited from earlier work
[4] = test system: RNA silencing pathway (SULPHUR transcript) in SUC-SUL Arabidopsis reporter plants; assay: SUC-SUL Arabidopsis reporter plants, percentage of chlorosis (seedlings); assay type: in vivo, A. thaliana; conditions: 300 ppm spray, seedlings five days post-germination, assessed 14 days after treatment
Text: The plants' RNA silencing pathway can be easily monitored with certain artificially-created reporter plants called the “SUC-SUL Arabidopsis reporter plants” (Dunoyer et al., Nat. Genet. 37, 1356-1360, 2005). The SUC-SUL Arabidopsis reporter plants are transgenic plants expressing an inverted-repeat (IR) double-stranded RNA designed to target the SULPHUR (SUL) transcript in the vasculature under the control of the SUC2 promoter (Truernit et al., Planta 196(3), 564-570, 1995). Once expressed, the dsRNA is processed into small interfering RNAs directing non-cell autonomous post-transcriptional gene silencing of the SULPHUR transcript, in turn causing vein-centered chlorosis. Since the observed chlorosis results from the silencing of the SULPHUR transcript, an expansion of the chlorosis, observable directly on the plants, is correlated with an intensification of the RNA silencing pathway at the molecular level. […] The effects of the treatments on the SUC-SUL reporter plants were assessed 14 days after treatment under trans-illumination and digitally recorded with a stereo-microscope by measuring the surface and intensity of the chlorotic zone (percentage of chlorosis). […]

[5] = test system: RNAi pathway (SUL transcript, SUL protein, SUL siRNAs) in SUC-SUL Arabidopsis plants; assay: Molecular confirmation in four-week-old SUC-SUL Arabidopsis plants; assay type: in vivo; conditions: 200 ppm spray, seven days after treatment
Text: The enhancing effect of DFPM on the RNAi machinery has been validated at the phenotypic and molecular levels. Four-week-old SUC-SUL Arabidopsis plants at rosette stage were sprayed with DFPM at 200 ppm. […] The plant aerial tissues were collected and analyzed molecularly using state-of-the-art methodologies. […] Furthermore, these effects were associated with an over-accumulation of both SUL 21-nt and 24-nt long siRNAs derived from the transgenic SUL.

[6] = test system: Turnip mosaic virus (TuMV-GFP); assay: Antiviral efficacy against TuMV-GFP on Arabidopsis; assay type: in vivo; conditions: 100 or 200 ppm sprayed 3 days before infection
Experimental: The Turnip mosaic virus (TuMV) belongs to the Potyviridae, the largest family of known plant viruses. This virus infects a wide range of plants, in particular Brassicaceae. TuMV genome consists of a positive-sense single-stranded RNA molecule (+ssRNA). The antiviral efficacy of DFMP was tested with a fluorescently-tagged potyvirus (TuMV-GFP) in order to specifically pinpoint when and where the effect of the molecules is induced during virus primary infection, as well as its local or systemic spread.
Arabidopsis plants were sprayed with 100 or 200 ppm of DFMP 3 days before infecting the plants with the TuMV-GFP virus. Virus titers were measured by qPCR and/or virus protein accumulation on Western blot analyses and by counting the number of primary infection foci under UV light in the case of the TuMV-GFP.

[7] = test system: Turnip crinkle virus (TCV); assay: Antiviral efficacy against TCV; assay type: in vivo; conditions: 100 ppm
Text: (§1) Similar results were obtained with DFPM with the unrelated viruses Turnip crinkle virus (TCV,) and Cauliflower mosaic virus (CaMV). The TCV belongs to the Tombusviridae family and infects various types of plant species including the common plant models A. thaliana and N. benthamiana. Its genome is another example of +strand RNA virus. The CaMV belongs to the Caulimoviridae family. It infects mostly Brassicaceae such as turnip and cabbage, but is also able to infect A. thaliana. CaMV consists of a double-stranded DNA molecule.

[8] = test system: Cauliflower mosaic virus (CaMV); assay: Antiviral efficacy against CaMV; assay type: in vivo; conditions: 100 ppm
Text: as §1

[9] = test system: Bean pod mottle virus (BPMV-GFP); assay: Antiviral efficacy against BPMV-GFP on soybean plants; assay type: in vivo; conditions: seven days-post-infection
Experimental: The Bean pod mottle virus (BPMV) is a plant pathogenic virus of the family Comoviridae. This virus infects legumes and more particularly soybean. BPMV genome consists of a bipartite positive-sense single-stranded RNA molecule (+ssRNA). The antiviral efficacy of silencing enhancers was tested with a fluorescently-tagged comoviruss (BPMV-GFP) in order to specifically pinpoint when and where the effect of the molecules is induced during virus primary infection, local or systemic spread.
Soybean plants were sprayed with 100 or 200 ppm of DFPM and emulsifiable concentrate (EC) Premix one day before to infect the plants with the BPMV-GFP virus. Twelve replicates were used for each condition.

[10] = test system: ABA-dependent gene expression and ABA-induced stomatal closure; conditions: in vivo; cited from earlier work
[11] = test system: PHYTOALEXIN DEFICIENT4 (PAD4) and ENHANCED DISEASE SUSCEPTIBILITY1 (EDS1); conditions: in vivo; cited from earlier work
[12] = 100 ppm sprayed one day before infection
[13] = 200 ppm sprayed one day before infection

## COC(=O)N(OC)c1ccccc1COc1ccn(-c2ccc(Cl)cc2)n1 [Pyraclostrobin]
[1]; NahG transgenic tobacco unable to accumulate salicylic acid
  TMV resistance in NahG transgenic tobacco plants: able to enhance TMV resistance
[1]; tobacco
  resistance of tobacco against infection by TMV: enhance the resistance
[2]
  resistance of tobacco against infection by Pseudomonas syringae pv tabaci: enhance the resistance
[3]
  accumulation of SA-inducible PR-1 proteins: did not cause the accumulation

## S=C(c1ccc(-c2ccc(Cl)c(Cl)c2)o1)N1CCCCC1 [DFPM, [5-(3,4-Dichlorophenyl)Furan-2-yl]-Piperidin-1-ylMethanethione]
[4]
  percentage of chlorosis: significant increase
[5]; aerial tissues
  SUL 21-nt and 24-nt long siRNAs: over-accumulation
  SUL protein levels (Western blot): reductions in SUL protein levels
  SUL transcript levels (real-time qRT-PCR, FIG. 1): reductions in SUL transcript levels
[5]; vs DMSO only
  RNAi-dependent vein-centered chlorotic phenotype: clear expansion
[6]; five days post-infection
  virus accumulation on inoculated leaves (infection foci, FIG. 2): strong reduction
[6]; five days-post-infection
  accumulation of virus titers: clear reduction
[6]; six days post-infection
  virus accumulation on systemic tissues (TuMV-derived HcPro mRNA levels, FIG. 3): strong reduction
[7]
  virus accumulation on inoculated leaves and systemic tissues (TCV-derived P38 mRNA): strong reduction
[8]
  virus accumulation on inoculated leaves and systemic tissues (CaMV-derived P6 mRNA): strong reduction
[9]; 100 or 200 ppm
  BPMV fluorescence on soybean: clear reduction
  number of plants showing BPMV symptoms: clear reduction
[9]; [12]
  Average of Percentage of BPMV fluorescence: 31%
  Percentage of plants showing BPMV symptoms: 55%
[9]; [13]
  Average of Percentage of BPMV fluorescence: 8%
  Percentage of plants showing BPMV symptoms: 10%
[10]
  ABA-dependent gene expression in plant: rapidly downregulates
  ABA-induced stomatal closure: inhibits
[11]
  expression of plant defense-related genes including PAD4 and EDS1: stimulates
